Laboratory results from patent US20110207723A1, “NOVEL FUSED AMINODIHYDROTHIAZINE DERIVATIVE” (EISAI R&D MANAGEMENT CO., LTD., priority 2008, published 2011).

System: Aβ42 production
Assay: Quantification of Aβ peptide in culture of neurons from rat fetus brain (Aβ42 ELISA)
Type: cell-based
Conditions: Neuron, 72 h, rat primary neuronal culture (embryonic day 18 Wistar rat cerebral cortex), medium collected three days after addition of compound, read-out: Aβ42 production reducing effect IC50
Protocol: Quantification of Aβ Peptide in Culture of Neurons from Rat Fetus Brain
Primary neuronal cultures were prepared from the cerebral cortex of embryonic day 18 Wistar rats (Charles River Japan, Yokohama, Japan). Specifically, the embryos were aseptically removed from pregnant rats under ether anesthesia. The brain was isolated from the embryo and immersed in an ice-cold L-15 medium (such as Invitrogen Corp. Cat #11415-064, Carlsbad, Calif., USA, or SIGMA L1518). The cerebral cortex was collected from the isolated brain under a stereoscopic microscope. The cerebral cortex fragments collected were enzymatically treated in an enzyme solution containing 0.25% trypsin (Invitrogen Corp. Cat #15050-065, Carlsbad, Calif., USA) and 0.01% DNase (Sigma D5025, St. Louis, Mo., USA) at 37° C. for 30 minutes to disperse the cells. Here, the enzymatic reaction was stopped by adding inactivated horse serum to the solution. The enzymatically treated solution was centrifuged at 1,500 rpm for five minutes to remove the supernatant. 5 to 10 ml of a medium was added to the resulting cell mass. Neurobasal medium (Invitrogen Corp. Cat #21103-049, Carlsbad, Calif., USA) supplemented with 2% B27 supplement (Invitrogen Corp. Cat #17504-044, Carlsbad, Calif., USA), 25 μM 2-mercaptoethanol (2-ME, WAKO Cat #139-06861, Osaka, Japan), 0.5 mM L-glutamine (Invitrogen Corp. Cat #25030-081, Carlsbad, Calif., USA), and Antibiotics-Antimycotics (Invitrogen Corp. Cat #15240-062, Carlsbad, Calif., USA) was used as the medium (Neurobasal/B27/2-ME). However, the above Neurobasal medium not supplemented with 2-ME (Neurobasal/B27) was used for the assay. The cells were redispersed by mild pipetting of the cell mass to which the medium was added. The cell dispersion was filtered through a 40-μm nylon mesh (Cell Strainer, Cat #35-2340, Becton Dickinson Labware, Franklin Lakes, N.J., USA) to remove the remaining cell mass, and thus a neuronal cell suspension was obtained. The neuronal cell suspension was diluted with the medium and then plated in a volume of 100 μl/well at an initial cell density of 5×10^5 cells/cm^2 in a 96-well polystyrene culture plate pre-coated with poly-L or D-lysine (Falcon Cat #35-3075, Becton Dickinson Labware, Franklin Lakes, N.J., USA coated with poly-L-lysine using the method shown below, or BIOCOAT™ cell environments Poly-D-lysine cell ware 96-well plate, Cat #35-6461, Becton Dickinson Labware, Franklin Lakes, N.J., USA). Poly-L-lysine coating was carried out as follows. 100 μg/ml of a poly-L-lysine (SIGMA P2636, St. Louis, Mo., USA) solution was aseptically prepared with a 0.15 M borate buffer (pH 8.5). […] of the solution was added to the 96-well polystyrene culture plate and incubated at room temperature for one or more hours or at 4° C. overnight or longer. Thereafter, the coated 96-well polystyrene culture plate was washed with sterile water four or more times, and then dried or rinsed with, for example, sterile PBS or medium, and used for cell plating. The plated cells were cultured in the culture plate at 37° C. in 5% CO2-95% air for one day. Then, the total amount of the medium was replaced with a fresh Neurobasal/B27/2-ME medium, and then the cells were cultured for further three days.
The drug was added to the culture plate on Day 4 of culture as follows. The total amount of the medium was removed from the wells, and 180 μl/well of Neurobasal medium not containing 2-ME and containing 2% B-27 (Neurobasal/B27) was added thereto. A solution of the test compound in dimethyl sulfoxide (hereinafter abbreviated as DMSO) was diluted with Neurobasal/B27 to a concentration 10-fold higher than the final concentration. 20 μl/well of the dilution was added to and sufficiently mixed with the medium. The final DMSO concentration was 1% or less. Only DMSO was added to the control group.
The cells were cultured for three days after addition of the compound, and the total amount of the medium was collected. […]

NC1=N[C@@]2(c3cc(-c4cccnc4F)ccc3F)CO[C@@H](C(F)(F)F)C[C@H]2CS1 (relative stereo) [Example 59, (±)-(4aR*,6R*,8aS*)-8a-[2-fluoro-5-(2-fluoropyridin-3-yl)phenyl]-6-trifluoromethyl-4,4a,5,6,8,8a-hexahydro-7-oxa-3-thia-1-azanaphthalen-2-ylamine]
IC50: 87 nM

NC1=N[C@@]2(c3cc(NC(=O)c4ncc(Br)cc4Br)ccc3F)COCC[C@H]2CS1 (single isomer, unassigned) [Example 54, N-[3-((4aR*,8aS*)-2-amino-4,4a,5,6-tetrahydro-7-oxa-3-thia-1-azanaphthalen-8a-yl)-4-fluorophenyl]-3,5-dibromopyridine-2-carboxamide]
IC50: 2 nM

NC1=N[C@@]2(c3cc(NC(=O)c4ncc(F)cc4F)ccc3F)CO[C@@H](C(F)(F)F)C[C@H]2CS1 (relative stereo) [Example 41, N-[3-((4aR*,6R*,8aS*-2-amino-6-trifluoromethyl-4,4a,5,6-tetrahydro-7-oxa-3-thia-1-azanaphthalen-8a-yl)-4-fluorophenyl]-3,5-difluoropyridine-2-carboxamide]
IC50: 2 nM

NC1=N[C@@]2(c3cc(NC(=O)c4ccc(C(F)F)cn4)ccc3F)COCC[C@H]2CS1 (single isomer, unassigned) [Example 56, N-[3-((4aR*,8aS*)-2-amino-4,4a,5,6-tetrahydro-7-oxa-3-thia-1-azanaphthalen-8a-yl)-4-fluorophenyl]-5-difluoromethylpyridine-2-carboxamide]
IC50: 3 nM

NC1=N[C@@]2(c3cc(-c4cccnc4F)ccc3F)CO[C@@H](COCc3ccccc3)C[C@H]2CS1 [Example 66, (4aR,6R,8aS)-8a-[2-fluoro-5-(2-fluoropyridin-3-yl)phenyl]-6-benzyloxymethyl-4,4a,5,6,8,8a-hexahydro-7-oxa-3-thia-1-azanaphthalen-2-ylamine]
IC50: 263 nM

COC[C@H]1C[C@H]2CSC(N)=N[C@@]2(c2cc(NC(=O)c3cnc(OC(F)F)cn3)ccc2F)CO1 (relative stereo) [Example 15, N-[3-((4aR*,6R*,8aS*)-2-amino-6-methoxymethyl-4,4a,5,6-tetrahydro-7-oxa-3-thia-1-azanaphthalen-8a-yl)-4-fluorophenyl]-5-difluoromethoxypyrazine-2-carboxamide]
IC50: 0.4 nM

C[C@H]1C[C@H]2CSC(N)=N[C@@]2(c2cc(NC(=O)c3cnc(OCF)cn3)ccc2F)CO1 (relative stereo) [Example 10, N-[3-((4aR*,6S*,8aS*)-2-amino-6-methyl-4,4a,5,6-tetrahydro-7-oxa-3-thia-1-azanaphthalen-8a-yl)-4-fluorophenyl]-5-fluoromethoxypyrazine-2-carboxamide]
IC50: 1 nM

N#Cc1ccc(C(=O)Nc2ccc(OC(F)(F)F)c([C@]34COCC[C@H]3CSC(N)=N4)c2)nc1 (single isomer, unassigned) [Example 4, N-[3-((4aR*,8aS*)-2-amino-4,4,5,6-tetrahydro-7-oxa-3-thia-1-azanaphthalen-8a-yl)-4-trifluoromethoxyphenyl]-5-cyanopyridine-2-carboxamide]
IC50: 11 nM

N#Cc1ccc(C(=O)Nc2ccc(F)c([C@]34CO[C@@H](CO)C[C@H]3CSC(N)=N4)c2)nc1 [Example 34, N-[3-((4aR,6R,8aS)-2-amino-6-hydroxymethyl-4,4a,5,6-tetrahydro-7-oxa-3-thia-1-azanaphthalen-8a-yl)-4-fluorophenyl]-5-cyanopyridine-2-carboxamide]
IC50: 2 nM

NC1=N[C@@]2(c3cc(NC(=O)c4ccccn4)ccc3F)CO[C@@H](C(F)(F)F)C[C@H]2CS1 (relative stereo) [Example 38, N-[3-((4aR*,6R*,8aS*)-2-amino-6-trifluoromethyl-4,4a,5,6-tetrahydro-7-oxa-3-thia-1-azanaphthalen-8a-yl)-4-fluorophenyl]-pyridine-2-carboxamide]
IC50: 3 nM

NC1=N[C@@]2(c3cc(NC(=O)c4cnc(C(F)F)cn4)ccc3F)COCC[C@H]2CS1 (single isomer, unassigned) [Example 57, N-[3-((4aR*,8aS*)-2-amino-4,4a,5,6-tetrahydro-7-oxa-3-thia-1-azanaphthalen-8a-yl)-4-fluorophenyl]-5-difluoromethylpyrazine-2-carboxamide]
IC50: 2 nM

C[C@H]1C[C@H]2CSC(N)=N[C@@]2(c2cc(NC(=O)c3ccc(Cl)cn3)ccc2F)CO1 (relative stereo) [Example 6, N-[3-((4aR*,6S*,8aS*)-2-amino-6-methyl-4,4a,5,6-tetrahydro-7-oxa-3-thia-1-azanaphthalen-8a-yl)-4-fluorophenyl]-5-chloropyridine-2-carboxamide]
IC50: 1.2 nM

NC1=N[C@@]2(c3cc(NC(=O)c4ccc(OC(F)F)cn4)ccc3F)COC[C@@H](F)[C@H]2CS1 [Example 20, N-[3-((4aS,5S,8aS)-2-amino-5-fluoro-4,4a,5,6-tetrahydro-7-oxa-3-thia-1-azanaphthalen-8a-yl)-4-fluorophenyl]-5-difluoromethoxypyridine-2-carboxamide]
IC50: 9 nM

C[C@H]1C[C@H]2CSC(N)=N[C@@]2(c2cc(NC(=O)c3cnc(OC(F)F)cn3)ccc2F)CO1 (relative stereo) [Example 9, N-[3-((4aR*,6S*,8aS*)-2-amino-6-methyl-4,4a,5,6-tetrahydro-7-oxa-3-thia-1-azanaphthalen-8a-yl)-4-fluorophenyl]-5-difluoromethoxypyrazine-2-carboxamide]
IC50: 0.6 nM

NC1=N[C@@]2(c3cc(NC(=O)c4cnc(OCF)cn4)ccc3F)CO[C@@H](CF)C[C@H]2CS1 [Example 47, N-[3-((4aR,6R,8aS)-2-amino-6-fluoromethyl-4,4a,5,6-tetrahydro-7-oxa-3-thia-1-azanaphthalen-8a-yl)-4-fluorophenyl]-5-fluoromethoxypyrazine-2-carboxamide]
IC50: 4 nM

NC1=N[C@@]2(c3cc(NC(=O)c4cnc(OCF)cn4)ccc3F)COCC[C@H]2CS1 (relative stereo) [Example 2, N-[348S*,8aR*)-2-amino-4,4a,5,6-tetrahydro-7-oxa-3-thia-1-azanaphthalen-8a-yl)-4-fluorophenyl]-5-fluoromethoxypyrazine-2-carboxamide]
IC50: 2 nM

NC1=N[C@@]2(c3cc(NC(=O)c4ncc(F)cc4F)ccc3F)COCC[C@H]2CS1 (single isomer, unassigned) [Example 51, N-[3-((4aR*,8aS*)-2-amino-4,4a,5,6-tetrahydro-7-oxa-3-thia-1-azanaphthalen-8a-yl)-4-fluorophenyl]-3,5-difluoropyridine-2-carboxamide]
IC50: 6 nM

C[C@H]1C[C@H]2CSC(N)=N[C@@]2(c2cc(NC(=O)c3ccc(C#N)cn3)ccc2F)CO1 (relative stereo) [Example 7, N-[3-((4aR*,6S*,8aS*)-2-amino-6-methyl-4,4a,5,6-tetrahydro-7-oxa-3-thia-1-azanaphthalen-8a-yl)-4-fluorophenyl]-5-cyanopyridine-2-carboxamide]
IC50: 0.7 nM

C[C@H]1COC[C@]2(c3cc(NC(=O)c4cnc(OC(F)F)cn4)ccc3F)N=C(N)SC[C@H]12 (relative stereo) [Example 28, N-[3-((4aR*,5R*,8aS*)-2-amino-5-methyl-4,4a,5,6-tetrahydro-7-oxa-3-thia-1-azanaphthalen-8a-yl)-4-fluorophenyl]-5-difluoromethoxypyrazine-2-carboxamide]
IC50: 1.4 nM
